Data taken from patent US8492559B2, “Substituted indole compounds” (Gruenenthal GmbH, priority 2009, dated 2013).

Target: T1, human B1R receptor (hB1R) (Homo sapiens, UniProt P46663)
T1 construct: expressed in transfected cells; host or cells: CHO K1 cells
T1 sequence (P46663 1-353): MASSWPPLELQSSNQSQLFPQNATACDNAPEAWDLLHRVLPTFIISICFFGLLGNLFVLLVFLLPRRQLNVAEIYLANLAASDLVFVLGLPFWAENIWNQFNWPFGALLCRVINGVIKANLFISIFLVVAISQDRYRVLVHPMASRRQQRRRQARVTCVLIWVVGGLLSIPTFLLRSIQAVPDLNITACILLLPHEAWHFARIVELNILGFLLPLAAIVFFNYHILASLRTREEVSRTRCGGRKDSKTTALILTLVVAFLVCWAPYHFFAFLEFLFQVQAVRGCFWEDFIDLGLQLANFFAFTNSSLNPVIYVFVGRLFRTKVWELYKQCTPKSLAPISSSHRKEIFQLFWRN
Experiment: Functional investigation on the bradykinin 1 receptor (B1R), FLIPR Ca2+ assay, hB1R cells
Assay type: cell-based
Conditions: CHO K1 cells with human B1R, agonist Lys-Des-Arg9 bradykinin, % of maximum achievable inhibition; for inhibition at 10 µM: CHO-K1, 10 μM test substance, read-out: B1R antagonism, human [10 μM] % inhibition
Procedure: The agonistic or antagonistic action of substances can be quantified on the bradykinin 1 receptor (B1R) of the human and rat species with ectopically expressing cell lines (CHO K1 cells) and with the aid of a Ca^2+-sensitive dye (Fluo-4) using a fluorescent imaging plate reader (FLIPR). The indication in % activation is based on the Ca^2+ signal after addition of Lys-Des-Arg^9 bradykinin (0.5 nM) or Des-Arg^9 bradykinin (100 nM). Antagonists lead to a suppression of the Ca^2+ influx following administration of the agonist. The % inhibition in comparison with the maximum achievable inhibition is indicated.
1. Functional Investigation on the Bradykinin 1 Receptor (B1R)
The agonistic or antagonistic action of substances can be determined on the bradykinin 1 receptor (B1R) of the human and rat species with the following assay. According to this assay, the Ca^2+ inflow through the channel is quantified with the aid of a Ca^2+-sensitive dye (Fluo-4 type, Molecular Probes Europe BV, Leiden, Netherlands) in a fluorescent imaging plate reader (FLIPR, Molecular Devices, Sunnyvale, USA).
Chinese hamster ovary cells (CHO K1 cells) which are stably transfected with the human B1R gene (hB1R cells) or the B1R gene of the rat (rB1R cells) are used. For functional investigations these cells are plated-out onto black 96-well plates with a clear base (BD Biosciences, Heidelberg, Germany or Greiner, Frickenhausen, Germany) in a density of 20,000-35,000 cells/well. Overnight the cells are incubated at 37° C. and 5% CO2 in culture medium (hB1R cells: Ham's Nutrient Mixture F12, Gibco Invitrogen GmbH, Karlsruhe, Germany or DMEM, Sigma-Aldrich, Taufkirchen, Germany; rB1R cells: D-MEM/F12, Gibco Invitrogen, Karlsruhe, Germany) with 10 vol. % FBS (foetal bovine serum, Gibco Invitrogen GmbH, Karlsruhe, Germany or PAN Biotech GmbH, Aidenbach, Germany).
On the following day the cells are loaded with 2.13 μM Fluo-4 (Molecular Probes Europe BV, Leiden, Netherlands) in HBSS buffer (Hank's buffered saline solution, Gibco Invitrogen GmbH, Karlsruhe, Germany) with 2.5 mM probenecid (Sigma-Aldrich, Taufkirchen, Germany) and 10 mM HEPES (Sigma-Aldrich, Taufkirchen, Germany) for 60 min at 37° C. The plates are subsequently washed twice with HBSS buffer, and HBSS buffer which additionally contains 0.1% BSA (bovine serum albumin; Sigma-Aldrich, Taufkirchen, Germany), 5.6 mM glucose and 0.05% gelatine (Merck KGaA, Darmstadt, Germany) is added. After a further incubation of 20 minutes at room temperature, the plates are inserted into the FLIPR for Ca^2+ measurement.
Alternatively they are washed with buffer A (15 mM HEPES, 80 mM NaCl, 5 mM KCl, 1.2 mM CaCl2, 0.7 mM MgSO4, 2 g/l glucose, 2.5 mM probenecid) and loaded with buffer A with added 2.5 μM Fluo-4 and 0.025% Pluronic F127 (Sigma-Aldrich, Taufkirchen, Germany). The cells are then washed twice with buffer A and incubated for 30 minutes with buffer A, which additionally contains 0.05% BSA and 0.05% gelatine, at room temperature and then used for Ca^2+ measurement in the FLIPR. The Ca^2+-dependent fluorescence is measured here before and after addition of substances (λex=488 nm, λem=540 nm). The quantification is performed by measuring the highest fluorescence intensity (FC, fluorescence counts) over time.
The FLIPR protocol comprises two additions of substance. Test substances (10 μM) are first pipetted onto the cells and the Ca^2+ inflow is compared with the control (hB1R: Lys-Des-Arg^9 bradykinin>=50 nM; rB1R: Des-Arg^9 bradykinin 10 μM). The value in % activation based on the Ca^2+ signal after addition of Lys-Des-Arg^9 bradykinin (>=50 nM) or Des-Arg^9 bradykinin (10 μM) is obtained therefrom. After incubation for 10-20 minutes, Lys-Des-Arg^9 bradykinin (hB1R) or Des-Arg^9 bradykinin (rB1R) is applied in the EC80 concentration and the inflow of Ca^2+ is likewise determined.
Antagonists lead to a suppression of the Ca^2+ inflow. The % inhibition in comparison with the maximum achievable inhibition is calculated. […]

SMILES | inhibition at 10 µM | B1R antagonism, human [10 μM] % inhibition (10 μM test substance)
COc1cc(C)c(S(=O)(=O)Nc2ccc3ccn(CC(=O)N4CCC(CCN5CCCC5)CC4)c3c2)c(C)c1 [Compound G-01, 4-Methoxy-2,6-dimethyl-N-[1-[2-oxo-2-[4-(2-pyrrolidin-1-yl-ethyl)-piperidin-1-yl]-ethyl]-1H-indol-6-yl]-benzenesulfonic acid amide] | 98% | 
COc1cc(C)c(S(=O)(=O)Nc2cccc3ccn(CC(=O)N4CCC(CCN5CCCC5)CC4)c23)c(C)c1 [Compound G-02, 4-Methoxy-2,6-dimethyl-N-[1-[2-oxo-2-[4-(2-pyrrolidin-1-yl-ethyl)-piperidin-1-yl]-ethyl]-1H-indol-7-yl]-benzenesulfonic acid amide] | 95% | 
COc1cc(C)c(S(=O)(=O)Nc2cccc3ccn(CC(=O)N4CCC5(CC4)C(=O)NCN5c4ccccc4)c23)c(C)c1 [Compound G-04, 4-Methoxy-2,6-dimethyl-N-[1-[2-oxo-2-(1-oxo-4-phenyl-2,4,8-triazaspiro[4.5]decan-8-yl)-ethyl]-1H-indol-7-yl]-benzenesulfonic acid amide] | 68% | 
COc1cc(C)c(S(=O)(=O)Nc2cccc3ccn(CC(=O)N4CCC5(CC4)CCN(c4ccncc4)CC5)c23)c(C)c1 [Compound G-05, 4-Methoxy-2,6-dimethyl-N-[1-[2-oxo-2-(9-pyridin-4-yl-3,9-diazaspiro[5.5]undecan-3-yl)-ethyl]-1H-indol-7-yl]-benzenesulfonic acid amide] |  | 100%
COc1cc(C)c(S(=O)(=O)Nc2cccc3ccn(CC(=O)N4CCC(OCCN5CCCC5)(c5cccnc5)CC4)c23)c(C)c1 [Compound G-06, 4-Methoxy-2,6-dimethyl-N-[1-[2-oxo-2-[4-pyridin-3-yl-4-(2-pyrrolidin-1-yl-ethoxy)-piperidin-1-yl]-ethyl]-1H-indol-7-yl]-benzenesulfonic acid amide] | 83% | 
O=C(CCn1ccc2ccc(N3Cc4cccc(Cl)c4C3=O)cc21)N1CCC2(CC1)CCN(c1ccncc1)CC2 [Compound G-07, 7-Chloro-2-[1-[3-oxo-3-(9-pyridin-4-yl-3,9-diazaspiro[5.5]undecan-3-yl)-propyl]-1H-indol-6-yl]-2,3-dihydro-isoindol-1-one] | 96% | 
O=C(Cn1ccc2ccc(N3Cc4cccc(Cl)c4C3=O)cc21)N1CCC2(CC1)CCN(c1ccncc1)CC2 [Compound G-08, 7-Chloro-2-[1-[2-oxo-2-(9-pyridin-4-yl-3,9-diazaspiro[5.5]undecan-3-yl)-ethyl]-1H-indol-6-yl]-2,3-dihydro-isoindol-1-one] | 98% | 
O=C(CCn1ccc2cccc(N3Cc4cccc(Cl)c4C3=O)c21)N1CCC2(CC1)CCN(c1ccncc1)CC2 [Compound G-10, 7-Chloro-2-(1-(3-oxo-3-(9-(pyridin-4-yl)-3,9-diazaspiro[5.5]undecan-3-yl)propyl)-1H-indol-7-yl)isoindolin-1-one] | 100% | 
O=C(Cn1ccc2cccc(N3Cc4cccc(Cl)c4C3=O)c21)N1CCC2(CC1)CCN(c1ccncc1)CC2 [Compound G-11, 7-Chloro-2-(1-(2-oxo-2-(9-(pyridin-4-yl)-3,9-diazaspiro[5.5]undecan-3-yl)ethyl)-1H-indol-7-yl)isoindolin-1-one] | 46% | 
O=C(Cn1ccc2ccc(N3Cc4cccc(Cl)c4C3=O)cc21)N1CCC2(CCN(c3ccncc3)CC2)C1 [Compound G-12, 7-Chloro-2-(1-(2-oxo-2-(8-(pyridin-4-yl)-2,8-diazaspiro[4.5]decan-2-yl)ethyl)-1H-indol-6-yl)isoindolin-1-one] | 98% | 
COc1cc(C)c(S(=O)(=O)Nc2cccc3ccn(CC(=O)N4CCC5(CC4)CC(c4ccncc4)=NO5)c23)c(C)c1 [Compound G-13, 4-Methoxy-2,6-dimethyl-N-(1-(2-oxo-2-(3-(pyridin-4-yl)-1-oxa-2,8-diazaspiro[4.5]dec-2-en-8-yl)ethyl)-1H-indol-7-yl)benzenesulfonic acid amide] | 73% | 
COc1cc(C)c(S(=O)(=O)Nc2cccc3ccn(CC(=O)N4CCC5(CCN(c6ccncc6)CC5)C4)c23)c(C)c1 [Compound G-14, 4-Methoxy-2,6-dimethyl-N-(1-(2-oxo-2-(8-(pyridin-4-yl)-2,8-diazaspiro[4.5]decan-2-yl)ethyl)-1H-indol-7-yl)benzenesulfonic acid amide] | 99% | 
O=C(Cn1ccc2ccc(N3Cc4cccc(Cl)c4C3=O)cc21)N1CCC2(CC1)CC(c1ccncc1)=NO2 [Compound G-15, 7-Chloro-2-(1-(2-oxo-2-(3-(pyridin-4-yl)-1-oxa-2,8-diazaspiro[4.5]dec-2-en-8-yl)ethyl)-1H-indol-6-yl)isoindolin-1-one] | 81% | 
COc1cc(C)c(S(=O)(=O)Nc2cccc3ccn(CC(=O)N4CCC(N5CCc6cc(CN7CCCCC7)ccc6C5)C4)c23)c(C)c1 (stereo not drawn) [Compound G-16, 4-Methoxy-2,6-dimethyl-N-(1-(2-oxo-2-(3-(6-(piperidin-1-ylmethyl)-3,4-dihydroisoquinolin-2(1H)-yl)pyrrolidin-1-yl)ethyl)-1H-indol-7-yl)benzenesulfonic acid amide] | 100% | 
COc1cc(C)c(S(=O)(=O)Nc2cccc3ccn(CC(=O)N4CCC5(CCN(c6ccncc6)C5)C4)c23)c(C)c1 (stereo not drawn) [Compound G-17, 4-Methoxy-2,6-dimethyl-N-(1-(2-oxo-2-(7-(pyridin-4-yl)-2,7-diazaspiro[4.4]nonan-2-yl)ethyl)-1H-indol-7-yl)benzenesulfonic acid amide] | 100% | 
COc1cc(C)c(S(=O)(=O)Nc2cccc3ccn(CC(=O)N4CCC5(CCC(N6CCC6)CC5)CC4)c23)c(C)c1 [Compound G-18, N-(1-(2-(9-(azetidin-1-yl)-3-azaspiro[5.5]undecan-3-yl)-2-oxoethyl)-1H-indol-7-yl)-4-methoxy-2,6-dimethylbenzenesulfonic acid amide] | 99% | 
O=C(Cn1ccc2ccc(N3Cc4cccc(Cl)c4C3=O)cc21)N1CCC2(CCC(Oc3ccncc3)CC2)CC1 [Compound G-19, 7-Chloro-2-(1-(2-oxo-2-(9-(pyridin-4-yloxy)-3-azaspiro[5.5]undecan-3-yl)ethyl)-1H-indol-6-yl)isoindolin-1-one] | 97% | 
O=C(Cn1ccc2ccc(N3Cc4cccc(Cl)c4C3=O)cc21)N1CCC2(CCC(N3CC(F)(F)C3)CC2)CC1 [Compound G-20, 7-Chloro-2-(1-(2-(9-(3,3-difluoroazetidin-1-yl)-3-azaspiro[5.5]undecan-3-yl)-2-oxoethyl)-1H-indol-6-yl)isoindolin-1-one] | 43% | 
